Experimental data: patent publication US20220288213A1, “INSULIN ANALOGUES WITH GLUCOSE REGULATED CONFORMATIONAL SWITCH” (Thermalin Inc., priority 2019, published 2022)

Key:
[1] = Alizarin Red S (ARS) competitive assay, glucose as competitor; type: binding
Method: Stock solutions of test compounds, competitor (polyols, i.e., fructose and glucose), and Alizarin Red S (ARS) were dissolved in 0.1 mM Sodium Phosphate, pH 7.4. In a 96-well plate, stock solutions were combined to final concentrations of 20 μm ARS, 0.1 mM test compound, and varying competitor concentrations (0, 5, 10, 15, and/or 25 mM). Final solution (75 μL) was added to each plate well. Fluorescence data was acquired on Molecular Devices SpectraMax M2 with excitation at 456 nm and emission at 600 nm. In this assay, the selectivity of synthesized constructs for glucose was determined using the ARS competitive assay. Test articles were incubated with ARS and competitors (i.e. glucose and fructose) were added at varying concentrations. ARS fluorescence increases when the molecule interacts with boronic acids. The fluorescence was measured after the addition of the competitor. A decrease in fluorescence indicates the displacement of the ARS molecule by the sensor. All data were normalized to the fluorescence of an untreated solution (ARS bound to the sensing unit). […] This was not observed when FPBA was incubated with glucose. […] These are peptides modified to include glucose sensors at the lysyl residue. DA-Z4 is an L-diaminopropionic acid modified to include two benzoxoxaboroles. DA-Z16 is an D-diaminobutyric acid modified to include two benzoxaboroles. […]

[2] = Alizarin Red S (ARS) competitive assay, fructose as competitor; type: binding; conditions: 20 μm ARS, 0.1 mM test compound, competitor 0-25 mM, pH 7.4; a decrease means ARS is displaced
Method: Stock solutions of test compounds, competitor (polyols, i.e., fructose and glucose), and Alizarin Red S (ARS) were dissolved in 0.1 mM Sodium Phosphate, pH 7.4. In a 96-well plate, stock solutions were combined to final concentrations of 20 μm ARS, 0.1 mM test compound, and varying competitor concentrations (0, 5, 10, 15, and/or 25 mM). Final solution (75 μL) was added to each plate well. Fluorescence data was acquired on Molecular Devices SpectraMax M2 with excitation at 456 nm and emission at 600 nm.
In this assay, the selectivity of synthesized constructs for glucose was determined using the ARS competitive assay. Test articles were incubated with ARS and competitors (i.e. glucose and fructose) were added at varying concentrations. ARS fluorescence increases when the molecule interacts with boronic acids. The fluorescence was measured after the addition of the competitor. A decrease in fluorescence indicates the displacement of the ARS molecule by the sensor. All data were normalized to the fluorescence of an untreated solution (ARS bound to the sensing unit). […] This was not observed when FPBA was incubated with glucose. […] These are peptides modified to include glucose sensors at the lysyl residue. DA-Z4 is an L-diaminopropionic acid modified to include two benzoxoxaboroles. DA-Z16 is an D-diaminobutyric acid modified to include two benzoxaboroles. […]

Compound | binding to glucose compared to monoboronic acids such as FPBA and FPBA KB28 PB29 ([1]; ARS data) | ARS fluorescence signal decrease when incubated with glucose ([1]; 20 μm ARS, 0.1 mM test compound, competitor 0-25 mM, pH 7.4) | ARS fluorescence signal when treated with fructose [2]
O=C(NC[C@H](NC(=O)c1ccc2c(c1)B(O)OC2)C(=O)O)c1ccc2c(c1)B(O)OC2 [DA-Z4, (S)-2,3-bis(1-hydroxy-1,3-dihydrobenzo[c][1,2]oxaborole-6-carboxamido)propanoic acid] | stronger binding to glucose |  | 
fluoro-phenylboronic acid [FPBA] |  | not observed | fluorescence signal decreases
